Experimental data published in patent US11123355B2, “Antiviral benzyl-amine phosphodiamide compounds” (Merck Sharp & Dohme Corp., priority 2016, dated 2021).
Like-named read-outs stand apart in the source and are kept apart here.

System: HIV-1 (H9/IIB strain)
Assay: Multiple Round HIV-1 Infection Assay (Viking Assay) in MT4-GFP cells
Format: cell-based
Conditions: inhibition of reproductive ratio R0
Method: Assessing antiviral potency in a Multiple Round HIV-1 Infection Assay (Viking Assay) The antiviral activity of the tenofovir prodrugs of the Examples herein was assessed in an assay that measures the rate of replication of HIV in cell culture, termed the Viking assay (VIral KINetics in Green cells) and performed as follows. HIV-1 replication was monitored using MT4-gag-GFP clone D3 (hereafter designated MT4-GFP), which are MT-4 cells modified to harbor a GFP reporter gene, the expression of which is dependent on the HIV-1 expressed proteins tat and rev. Productive infection of an MT4-GFP cell with HIV-1 results in GFP expression approximately 24 h post-infection. MT4-GFP cells were maintained at 37° C./5% CO2/90% relative humidity in RPMI 1640 supplemented with 10/o fetal bovine serum, 100 U/ml penicillin/streptomycin, and 400 μg/ml G418 to maintain the reporter gene. For infections, MT4-GFP cells were placed in the same medium lacking G418 and infected overnight with HIV-1 (H9/IIB strain) virus at an approximate multiplicity of infection of 0.01 in the same incubation conditions. Cells were then washed and re-suspended in either RPMI 1640 supplemented with 10% or 50% normal human serum (NHS) at 1.6×10^5 cells/mL (10% NHS or 50% NHS, respectively). Compound plates were prepared by dispensing compounds dissolved in DMSO into wells of 384 well poly-D-lysine-coated plates (0.2 μl/well) using an ECHO acoustic dispenser. Each compound was tested in a 10-point serial 3-fold dilution (typical final concentrations: 8.4 μM-0.42 nM). Controls included no inhibitor (DMSO only) and a combination of three antiviral agents (efavirenz, indinavir, an in-house integrase strand transfer inhibitor at final concentrations of 4 μM each). Cells were added (50 μL/well) to compound plates and the infected cells were maintained at 37° C./5% CO2/90% relative humidity.
Infected cells were quantified at two time points, ˜48 h and ˜72 h post-infection, by counting the number of green cells in each well using an Acumen eX3 scanner. The increase in the number of green cells over ˜24 h period gives the reproductive ratio, R0, which is typically 5-15 and has been shown experimentally to be in logarithmic phase (data not shown). Inhibition of R0 is calculated for each well, and IC50s determined by non-linear 4-parameter curve fitting.

[1] = MT4-GFP cells infected with HIV-1, 10% normal human serum, read-out: Viking, IC50 (10% NHS)
[2] = MT4-GFP cells infected with HIV-1, 50% normal human serum, read-out: Viking, IC50 (50% NHS)

Compound | IC50 [1] | IC50 [2]
CCCOC(=O)C(C)(C)NP(=O)(CO[C@H](C)Cn1cnc2c(N)ncnc21)N[C@H](c1cccc(OC)c1)C(F)(F)F (stereo partly drawn) [Example 25B, propyl 2-(((R)-((((R)-1-(6-amino-9H-purin-9-yl)propan-2-yl)oxy)methyl)(((R)-2,2,2-trifluoro-1-(3-methoxyphenyl)ethyl)amino)phosphoryl)a-mino)-2-methylpropanoate and propyl 2-(((S)-((((R)-1-(6-amino-9H-purin-9-yl)propan-2-yl)oxy)methyl)(((R)-2,2,2-trifluoro-1-(3-methoxyphenyl)ethyl)amino)phosphoryl)a-mino)-2-methylpropanoate] | 15 nM | 97 nM
CCCOC(=O)C(C)(C)N[P@@](=O)(CO[C@H](C)Cn1cnc2c(N)ncnc21)N[C@@H](c1cccc(OC)c1)C(F)(F)F [Example 28A, propyl 2-(((R)-((((R)-1-(6-amino-9H-purin-9-yl)propan-2-yl)oxy)methyl)(((S)-2,2,2-trifluoro-1-(3-methoxyphenyl)ethyl)amino)phosphoryl)a-mino)-2-methylpropanoate and propyl 2-(((S)-((((R)-1-(6-amino-9H-purin-9-yl)propan-2-yl)oxy)methyl)(((S)-2,2,2-trifluoro-1-(3-methoxyphenyl)ethyl)amino)phosphoryl)a-mino)-2-methylpropanoate] | 29 nM | 330 nM
CCCOC(=O)C(C)(C)N[P@@](=O)(CO[C@H](C)Cn1cnc2c(N)ncnc21)N[C@@H](c1cccc(OC)c1)C(F)(F)F [Example 28B, propyl 2-(((R)-((((R)-1-(6-amino-9H-purin-9-yl)propan-2-yl)oxy)methyl)(((S)-2,2,2-trifluoro-1-(3-methoxyphenyl)ethyl)amino)phosphoryl)a-mino)-2-methylpropanoate and propyl 2-(((S)-((((R)-1-(6-amino-9H-purin-9-yl)propan-2-yl)oxy)methyl)(((S)-2,2,2-trifluoro-1-(3-methoxyphenyl)ethyl)amino)phosphoryl)a-mino)-2-methylpropanoate] | 17 nM | 120 nM
CCCOC(=O)C(C)(C)N[P@@](=O)(CO[C@H](C)Cn1cnc2c(N)ncnc21)N[C@H](C)c1ccc(Cl)cc1C [Example 29A, propyl 2-(((R)-((((R)-1-(6-amino-9H-purin-9-yl)propan-2-yl)oxy)methyl)(((R)-1-(4-chloro-2-methylphenyl)ethyl)amino)phosphoryl)ami-no)-2-methylpropanoate and propyl 2-(((S)-((((R)-1-(6-amino-9H-purin-9-yl)propan-2-yl)oxy)methyl)(((R)-1-(4-chloro-2-methyphenyl)ethyl)amino)phosphoryl)ami-no)-2-methylpropanoate] | 260 nM | 2300 nM
CCCOC(=O)C(C)(C)NP(=O)(CO[C@H](C)Cn1cnc2c(N)ncnc21)N[C@@H](C)c1ccc(Cl)cc1C (stereo partly drawn) [Example 30A, propyl 2-(((R)-((((R)-1-(6-amino-9H-purin-9-yl)propan-2-yl)oxy)methyl)(((S)-1-(4-chloro-2-methylphenyl)ethyl)amino)phosphoryl)ami-no)-2-methylpropanoate and propyl 2-(((S)-((((R)-1-(6-amino-9H-purin-9-yl)propan-2-yl)oxy)methyl)(((S)-1-(4-chloro-2-methylphenyl)ethyl)amino)phosphoryl)ami-no)-2-methylpropanoate] | 24 nM | 350 nM
CCCOC(=O)C(C)(C)NP(=O)(CO[C@H](C)Cn1cnc2c(N)ncnc21)N[C@@H](C)c1ccc(Cl)cc1C (stereo partly drawn) [Example 30B, propyl 2-(((R)-((((R)-1-(6-amino-9H-purin-9-yl)propan-2-yl)oxy)methyl)(((S)-1-(4-chloro-2-methylphenyl)ethyl)amino)phosphoryl)ami-no)-2-methylpropanoate and propyl 2-(((S)-((((R)-1-(6-amino-9H-purin-9-yl)propan-2-yl)oxy)methyl)(((S)-1-(4-chloro-2-methylphenyl)ethyl)amino)phosphoryl)ami-no)-2-methylpropanoate] | 56 nM | 750 nM
CCCOC(=O)C(C)(C)NP(=O)(CO[C@H](C)Cn1cnc2c(N)ncnc21)N[C@H](C)c1ccc(C#N)cc1 (stereo partly drawn) [Example 31A, propyl 2-(((R)-((((R)-1-(6-amino-9H-purin-9-yl)propan-2-yl)oxy)methyl)(((R)-1-(4-cyanophenyl)ethyl)amino)phosphoryl)ami-no)-2-methylpropanoate and propyl 2-(((S)-((((R)-1-(6-amino-9H-purin-9-yl)propan-2-yl)oxy)methyl)(((R)-1-(4-cyanophenyl)ethyl)amino)phosphoryl)ami-no)-2-methylpropanoate] | 83 nM | 770 nM
CCCOC(=O)C(C)(C)NP(=O)(CO[C@H](C)Cn1cnc2c(N)ncnc21)N(C)Cc1ccc(C(C)C)cc1 (stereo partly drawn) [Example 32A, propyl 2-(((R)-((((R)-1-(6-amino-9H-purin-9-yl)propan-2-yl)oxy)methyl)((4-isopropylbenzyl)(methyl)amino)phos-phoryl)amino)-2-methylpropanoate and propyl 2-(((S)-((((R)-1-(6-amino-9H-purin-9-yl)propan-2-yl)oxy)methyl)((4-isopropylbenzyl)(methyl)amino)phos-phoryl)amino)-2-methylpropanoate] | 1.7 nM | 6.7 nM
CCCOC(=O)C(C)(C)NP(=O)(CO[C@H](C)Cn1cnc2c(N)ncnc21)N(C)Cc1ccc(C(C)C)cc1 (stereo partly drawn) [Example 32B, propyl 2-(((R)-((((R)-1-(6-amino-9H-purin-9-yl)propan-2-yl)oxy)methyl)((4-isopropylbenzyl)(methyl)amino)phos-phoryl)amino)-2-methylpropanoate and propyl 2-(((S)-((((R)-1-(6-amino-9H-purin-9-yl)propan-2-yl)oxy)methyl)((4-isopropylbenzyl)(methyl)amino)phos-phoryl)amino)-2-methylpropanoate] | 10 nM | 41 nM
CCCOC(=O)C(C)(C)N[P@](=O)(CO[C@H](C)Cn1cnc2c(N)ncnc21)N(C)[C@H](C)c1ccc(OC(F)(F)F)cc1 [Example 33A, propyl 2-(((R)-((((R)-1-(6-amino-9H-purin-9-yl)propan-2-yl)oxy)methyl)(methyl((R)-1-(4-(trifluoromethoxy)phenyl)ethyl)amino)phos-phoryl)amino)-2-methylpropanoate and propyl 2-(((S)-((((R)-1-(6-amino-9H-purin-9-yl)propan-2-yl)oxy)methyl)(methyl((R)-1-(4-(trifluoromethoxy)phenyl)ethyl)amino)phos-phoryl)amino)-2-methylpropanoate] | 25 nM | 84 nM
CC(C)OC(=O)C(C)(C)NP(=O)(CO[C@H](C)Cn1cnc2c(N)ncnc21)N[C@H](C)c1ccc(OC(F)(F)F)cc1 (stereo partly drawn) [Example 34A, isopropyl 2-(((R)-((((R)-1-(6-amino-9H-purin-9-yl)propan-2-yl)oxy)methyl)(((R)-1-(4-(trifluoromethoxy)phenyl)ethyl)amino)phos-phoryl)amino)-2-methylpropanoate and isopropyl 2-(((S)-((((R)-1-(6-amino-9H-purin-9-yl)propan-2-yl)oxy)methyl)(((R)-1-(4-(trifluoromethoxy)phenyl)ethyl)amino)phos-phoryl)amino)-2-methylpropanoate] | 760 nM | 4200 nM
CC(C)OC(=O)C(C)(C)N[P@@](=O)(CO[C@H](C)Cn1cnc2c(N)ncnc21)N[C@H](C)c1ccc(Cl)cc1 [Example 35A, isopropyl 2-(((R)-((((R)-1-(6-amino-9H-purin-9-yl)propan-2-yl)oxy)methyl)(((R)-1-(4-chlorophenyl)ethyl)amino)phosphoryl)ami-no)-2-methylpropanoate and isopropyl 2-(((S)-((((R)-1-(6-amino-9H-purin-9-yl)propan-2-yl)oxy)methyl)(((R)-1-(4-chlorophenyl)ethyl)amino)phosphoryl)ami-no)-2-methylpropanoate] | 280 nM | 1600 nM
CC(C)OC(=O)C(C)(C)N[P@@](=O)(CO[C@H](C)Cn1cnc2c(N)ncnc21)NC1(c2ccc(Cl)cc2)CC1 [Example 37A, isopropyl 2-(((R)-((((R)-1-(6-amino-9H-purin-9-yl)propan-2-yl)oxy)methyl)((1-(4-chlorophenyl)cyclopropyl)amino)phos-phoryl)amino)-2-methylpropanoate and isopropyl 2-(((S)-((((R)-1-(6-amino-9H-purin-9-yl)propan-2-yl)oxy)methyl)((1-(4-chlorophenyl)cyclopropyl)amino)phos-phoryl)amino)-2-methylpropanoate] | 110 nM | 720 nM
